We go through 2 compounds from patent US20200030455A1, “MULTISTEP TUMOR TARGETING BY TAGGED ANTIBODY DERIVATIVES AND TAGGED DRUGS” (ISTITUTO BIOCHIMICO ITALIANO GIOVANNI LORENZINI S.P.A, priority 2017, published 2020).

The subject of assay [1] is ERBB2 pathway (c-Fos promoter reporter) in BRC 230 breast carcinoma cells. The assay is described as follows: c-Fos promoter reporter (luminescence, RLU) assay of ERBB2 signaling. Type of assay: cell-based. An excerpt: Mertansine was StrepTagged using a linker-spacer (depicted in A). The Strep-tag peptide WSHPQFEK (SEQ ID NO 2) was linked to the mertansine thiol group using the protocol disclosed in Bioconjugate Techniques, 3rd Edition Bioconjugate Techniques, 3rd Edition (2013) by Greg T. Hermanson. BRC 230 breast carcinoma cells, expressing moderate levels of ERBB2 were stably transfected with a promoter-reporter gene construct in which luciferase is placed under the control of the c-Fos promoter. […] Therefore, c-Fos activation is proportional to ERBB2 signaling, and luminescence is expected to decrease in response to the Toolbox treatment. BRC transfectants were seeded in 96-well plates (quadruplicates), and cultured for 24 h either in the presence or in the absence of the ERB-specific growth factor Neuregulin 1 (NRG-1) at a concentration of 5 nM, as indicated. During the last 30 min of this incubation ScFv (10 μg/ml) was added, where indicated. Meanwhile, equal molar concentrations of StrepTagged Mertansine (or RPMI 1640 medium, as a control) were pre-incubated with StrepTactMult in complete culture medium (RPMI 1640 containing 10% bovine serum) to form drug: StrepTactin complexes. […] All the cells were cultured for additional 72 h, and Relative Luminescence Units (RLU) were assessed in a luminometer.

Assay [2] relates to SK-BR-3 breast carcinoma cells. The assay is described as follows: 3H-Thymidine incorporation (cell proliferation) assay. It is filed as cell-based, human. The following applies: drug alone, without Toolbox cocktail; 5 and 50 μM; 72 h. The protocol: NAX 098 was modified by covalent addition of the polypeptide StrepTag ([…]), as also shown in (A). SK-BR-3 breast carcinoma cells were seeded in 96-well plates (quadruplicates), and cultured for 30 min in the presence of ScFv (10 μg/ml). Meanwhile, equal molar concentrations of NAX 098 and NAX […] (or RPMI 1640 medium, as a control) were pre-incubated with StrepTactMult in complete culture medium (RPMI 1640 containing 10% bovine serum) to form drug: StrepTactin complexes. The drug: StrepTactin complexes were added to separate cultures to yield a final StrpTactMult concentration of 0.75 μg/well (approximately 3.2 μg/ml), and two final drug concentrations of 5 and 50 μM, as indicated in (B). As a control, equal amounts of NAX 098 and NAX […] drugs were added to separate wells in the absence of the Toolbox cocktail. All the cells were cultured for 72 h, and ^3H-Thymidine incorporation was assessed over a 4 h radioactive pulse. Results were expressed as percent of radioactive Thymidine incorporation as compared to untreated (RPMI 1640 vehicle alone) control cells.
In general terms: Uptake of a labelled nucleoside into DNA is a usual measure of proliferation.

In the case of “StrepTagged Mertansine: Strep-tag peptide WSHPQFEK linked to the mertansine thiol group using a linker-spacer”, the “activity of the ERBB2 pathway (Relative Luminescence Units)” value in assay [1] (BRC 230 transfectants, with or without NRG-1 5 nM, ScFv 10 μg/ml, drug 5 nM, 72 h) is recorded as “inhibited the ERBB2 pathway”. The “activity of the StrepTagged drug before system-mediated dispatch” value in assay [1] (figure legend of Drawing 4) is “inactivates the drug”.
Consider `COc1ccc2c(CCc3ccc(Cl)cc3)c3[n+](cc2c1OCCCN1C(=O)C=CC1=O)CCc1cc2c(cc1-3)OCO2` [NAX 098, 9-(3-propylmaleimide)-13-[2-(4-chlorophenyl)ethyl]berberine], for which the “inhibition of cell proliferation (3H-Thymidine incorporation vs untreated control)” value in assay [2] is “strongly inhibited cell proliferation”.
